How the values were obtained:
Experiment in all cases: relative viability (nuclei count vs DMSO), 5 days (fraction); higher = more cells survive
Sorafenib + Alpelisib = compound: CNC(=O)c1cc(Oc2ccc(NC(=O)Nc3ccc(Cl)c(C(F)(F)F)c3)cc2)ccn1 [Sorafenib] + Cc1nc(NC(=O)N2CCC[C@H]2C(N)=O)sc1-c1ccnc(C(C)(C)C(F)(F)F)c1 [Alpelisib] (partner 2 µM)
Method in brief: (§1)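 A single step with final 0.05% Triton X-100, 1% formaldehyde and 1 ug/ml Hoechst fixed the cells and stained nuclei 5 days after treatment. Lung cancer cell lines in 1536-well plates had been treated by pin tool the day after seeding with one drug alone or a fixed anchor-drug dose plus five library-drug doses (not always all listed) in √10 steps, and nuclei were counted on 4× images. Relative viability is the ratio of nuclei in treated wells to nuclei in vehicle wells, taken as the median of duplicate plates.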

Sorafenib + Olaparib = compound: CNC(=O)c1cc(Oc2ccc(NC(=O)Nc3ccc(Cl)c(C(F)(F)F)c3)cc2)ccn1 [Sorafenib] + O=C(c1cc(Cc2n[nH]c(=O)c3ccccc23)ccc1F)N1CCN(C(=O)C2CC2)CC1 [Olaparib] (partner 8 µM)
Method in brief: as §1

Sorafenib + Trametinib = compound: CNC(=O)c1cc(Oc2ccc(NC(=O)Nc3ccc(Cl)c(C(F)(F)F)c3)cc2)ccn1 [Sorafenib] + CC(=O)Nc1cccc(-n2c(=O)n(C3CC3)c(=O)c3c(Nc4ccc(I)cc4F)n(C)c(=O)c(C)c32)c1 [Trametinib] (partner 0.02 µM)
Method in brief: as §1

Sorafenib + Tozasertib = compound: CNC(=O)c1cc(Oc2ccc(NC(=O)Nc3ccc(Cl)c(C(F)(F)F)c3)cc2)ccn1 [Sorafenib] + Cc1cc(Nc2cc(N3CCN(C)CC3)nc(Sc3ccc(NC(=O)C4CC4)cc3)n2)n[nH]1 [Tozasertib] (partner 0.1 µM)
Method in brief: as §1

Sorafenib + Phenformin = compound: CNC(=O)c1cc(Oc2ccc(NC(=O)Nc3ccc(Cl)c(C(F)(F)F)c3)cc2)ccn1 [Sorafenib] + N=C(N)NC(=N)NCCc1ccccc1 [Phenformin] (partner 250 µM)
Method in brief: as §1

Row | Cell Line | relative viability (Sorafenib + Alpelisib; first compound 0.08 µM) | relative viability (Sorafenib + Alpelisib; first compound 0.253 µM) | relative viability (Sorafenib + Alpelisib; first compound 2.53 µM) | relative viability (Sorafenib + Alpelisib; first compound 8 µM) | relative viability (Sorafenib + Olaparib; first compound 0.08 µM) | relative viability (Sorafenib + Olaparib; first compound 0.253 µM) | relative viability (Sorafenib + Olaparib; first compound 2.53 µM) | relative viability (Sorafenib + Olaparib; first compound 8 µM) | relative viability (Sorafenib + Trametinib; first compound 0.08 µM) | relative viability (Sorafenib + Trametinib; first compound 0.253 µM) | relative viability (Sorafenib + Trametinib; first compound 2.53 µM) | relative viability (Sorafenib + Trametinib; first compound 8 µM) | relative viability (Sorafenib + Tozasertib; first compound 0.08 µM) | relative viability (Sorafenib + Tozasertib; first compound 0.253 µM) | relative viability (Sorafenib + Tozasertib; first compound 2.53 µM) | relative viability (Sorafenib + Tozasertib; first compound 8 µM) | relative viability (Sorafenib + Phenformin; first compound 0.08 µM) | relative viability (Sorafenib + Phenformin; first compound 2.53 µM) | relative viability (Sorafenib + Phenformin; first compound 8 µM) | relative viability (Sorafenib + Phenformin; first compound 0.253 µM)
1 | NCI-H23 | 0.74 | 0.632 | 0.745 | 0.498 | 0.31 | 0.249 | 0.343 | 0.266 | 0.406 | 0.397 | 0.288 | 0.225 | 0.362 | 0.286 | 0.276 | 0.219 | 0.829 | 0.726 | 0.74 | 
2 | RERF-LC-KJ | 1.03 | 0.989 | 0.951 | 0.906 | 0.979 | 0.784 |  | 0.297 | 0.753 |  | 0.86 | 0.65 | 0.532 | 0.489 | 0.41 | 0.221 | 0.437 | 0.463 | 0.394 | 0.435
3 | NCI-H3122 | 0.799 | 0.971 | 0.79 | 0.409 | 0.639 | 0.611 | 0.6 | 0.53 | 0.234 | 0.208 | 0.176 | 0.129 | 0.44 | 0.363 | 0.363 | 0.301 | 0.39 | 0.346 | 0.212 | 0.326
4 | NCI-H2009 | 1.22 |  | 1.03 | 0.842 | 0.621 | 0.533 | 0.524 | 0.556 | 0.339 | 0.282 | 0.204 | 0.159 | 0.775 | 0.666 | 0.723 | 0.498 | 0.47 | 0.433 | 0.157 | 0.365
5 | SK-LU-1 | 0.987 |  | 0.868 | 0.242 | 0.534 | 0.361 | 0.549 | 0.317 | 0.726 | 0.44 | 0.302 | 0.234 | 0.346 | 0.347 | 0.325 | 0.211 | 0.641 | 0.487 | 0.195 | 0.484
6 | EPLC-272H | 0.928 | 0.986 | 1.15 | 0.898 | 1.11 | 0.838 | 1.02 | 0.283 | 0.298 | 0.274 | 0.27 | 0.205 | 0.331 | 0.389 | 0.389 | 0.293 | 0.402 | 0.294 | 0.315 | 0.264
7 | NCI-H661 | 0.949 | 0.478 | 0.596 | 0.365 | 0.726 | 0.764 | 0.679 | 0.444 | 0.584 |  | 0.444 | 0.291 | 0.35 | 0.378 | 0.333 |  | 0.279 | 0.289 | 0.215 | 0.143
8 | NCI-H838 | 1.08 | 1.1 | 1.15 | 0.905 | 0.776 | 0.744 | 0.735 | 0.215 | 0.606 | 0.507 | 0.498 | 0.291 | 0.278 | 0.261 | 0.284 | 0.197 | 0.749 | 0.948 | 0.388 | 

Source: the supplement of paper PMC10307832
